Test results as given in US20250262139A1, “POLYPEPTIDES AND METHODS FOR IMPROVING SKIN CONDITIONS” (INTERK PEPTIDE THERAPEUTICS LIMITED, priority 2020, published 2025).
“Also recorded” adds a separate entry of the source. Where no end group is shown, it is not given here. [ ]: non-standard residue; d: D form.

Assays:
[1] = test system: ICR mice, punch skin wound; experiment: murine wound model, wound closure; format: in vivo; conditions: topical 10 μg per mouse daily for 10 consecutive days
From the text: FIGS. 1 and 2 illustrate the effect of polypeptides IK34720 (SEQ ID NO: 3—RSKAKNPLYRRRRRRRRR) (FIG. 1) and the dextro-reverso sequence IK236770 (SEQ ID NO: 4—rrrrrrrrrylpnkaksr) (FIG. 2), on wound healing over 10 days in a murine wound model in accordance with the following protocol.
Three groups of 8 male ICR mice with a mean weight of 22 g (+2 g) were used in the present study. The animals were housed in individual cages during the study. Under isoflurane gas anaesthesia, the shoulder and back region of each animal was shaved and a sharp punch (ID 12 mm) was used to induce a wound by removing the skin, including panniculus carnosus and adherent tissues on Day 1.
Following induction of the wound the polypeptides IK34720 and IK236770 were topically administered to the site of the wound at a dosage of 10 μg per animal. […] An additional group which comprised the administration of Phosphate buffered Saline (PBS) at pH 7.4 was used as a negative control.
The wound healing was analysed on Days 5, 7, 9 and 11 by tracing the periphery of the wound onto clear plastic sheets with the wound area calculated by an Image analyzer ProPlus (Media Cybernetics, Version 4.5.0.29. The percentage closure of the wound (%) was calculated. Percentage closure of the wound was determined on 5, 7, 9 and 11. ANOVA and Dunnett's test were applied to test significant significance between the treated groups (peptide and positive control groups) and the negative control group at each time point of measurement. Differences were considered statistically significant at P<0.05, and are indicated by *.

human skin explants = experiment: CPD formation in UV-irradiated human skin explants; format: cell-based; conditions: 3 hrs post irradiation/treatment; Calcitriol 1 nM; IK34720 50, 250 or 500 μM
Experimental: Human skin removed at elective surgery was cleaned, dissected and cut into pieces of approx. 5 mm×5 mm. Each piece was placed in a well of a 96 well plate, with individual plates prepared to assess the effects 3 hrs post treatment. All samples were performed in triplicate for each treatment. Skin was subjected to UV-radiation from solar-simulated UV source for 1.5 h (UVR), or non-irradiation (SHAM). Given that human skin is thicker than mouse skin, human skin explants were exposed to a radiation dose three times higher than that used for mouse skin, i.e., 20 J/cm2 versus 7 J/cm^2, respectively, and the output spectrum of the laboratory solar simulator has previously been reported (Rybchyn M S et al, J Invest Dermatol. 2018 May; 138 (5): 1146-1156) and treated immediately after with a vehicle control, Calcitriol (1 nM) or the polypeptide IK34720 (SEQ ID NO: 3) at concentrations of 50 μM, 250 μM or 500 μM.
Samples harvested at 3 hrs were fixed, section, stained and quantified as described in Example 5.

MMP1 = MMP1 immunohistochemical staining in UV-irradiated human skin explants; format: cell-based; conditions: 3 hrs post irradiation/treatment; Calcitriol 1 nM; IK34720 50, 250 or 500 μM
Experimental: Human skin (2×human explant tissues) removed at elective surgery was cleaned, dissected and cut into pieces of approx. 5 mm×5 mm. Each piece was placed in a well of a 96 well plate, with individual plates prepared to assess the effects 3 hrs post treatment. Skin was subjected to UV-radiation from solar-simulated UV source for 1.5 h (UVR), or non-irradiation (SHAM), and treated immediately after with a vehicle control, Calcitriol (1 nM) or the polypeptide IK34720 (SEQ ID NO: 3) at concentrations of 50 μM, 250 μM or 500 μM. In FIG. 17, IK50, IK250 and IK500 as μM concentrations refers to 15 μg, 75 μg and 150 μg of IK34720 per 120 μL culture medium/explant, respectively.
Samples harvested at 3 hrs were fixed, sectioned, immunohistochemically stained for MMP1 and quantified for MMP1 expression, by expressing epidermal area stained for MMP1 as a function of total epidermal area examined.

dermal fibroblasts = experiment: TBARS lipid peroxidation assay, UV-irradiated dermal fibroblasts; format: cell-based; conditions: IK-3 at the highest concentration (5 μM); 1,25D
Experimental: The ability of the polypeptide RSKAKNPLYRRRRRRRRR to alter UV-induced oxidative damage of cell-derived lipids was examined using the TBARS thiobarbituric acid-reactive substances (TBARS) lipid peroxidation assay.
After irradiation or sham-irradiation of dermal fibroblasts, supernatants (900 μL) were collected. In brief, 90 μL of butylated hydroxytoluene (2% w/w in ethanol) was added and samples kept frozen (−20° C.) until the TBARS assay. Petri dishes were washed twice with 1 mL of HBSS, cells scraped in 600 μL of water and 60 μL of 0.5% aqueous Triton X100 added to this solution, for protein determination carried out by the Lowry method (Lowry O H et al, J. Biol. Chem., 1951, 193:265-275). TBARS were fluorometrically assayed as described (Morlière P et al, Biochim. Biophys. Acta, 1991, 1084:261-268). Briefly, thawing samples were heated in the presence of thiobarbituric acid in acidic conditions, and TBARS extracted with 1-butanol and fluorometrically quantified (λexc=515 nm and Aem=550 nm). Tetraethoxypropane, which quantitatively yields the malondialdehyde-thiobarbituric acid adduct in the assay conditions, was used for calibration. TBARS values, expressed in malondialdehyde (MDA) equivalents, were normalized to the cell protein for each Petri dish. Each TBARS determination was performed in triplicate (e.g., with three Petri dishes per data point).

primary keratinocytes = experiment: CPD detection by IHC in keratinocytes 3 h following UV-irradiation; format: cell-based; conditions: 5 μM after ssUV; fixed 3 h after UV
Experimental: An in vitro assay was conducted allowing for densitometry analysis of CPD detection by IHC in keratinocytes 3 h following UV-irradiation in accordance with the following protocol.
Keratinocytes were harvested and cultured as described above at Example 2. Samples were split into two groups, being UV irradiated (UVR) and non-UV irradiated (SHAM). UV-irradiation was performed by solar simulated UV-irradiation for cells, also as described above at Example 2. Irradiation solution was PBS containing 5 mM D-glucose. […]
Harvested keratinocytes were plated on poly-D-lysine coated coverslips in 96 well plates and irradiated (or sham treated) as described above in at Example 2 in PBS containing 5 mM D-glucose. Keratinocytes were fixed 3 h after UV-irradiation. Immunohistochemistry and image analysis were performed as described previously (Gordon-Thomson et al., Photochem Photobiol Sci, 2012, 11 (12): 1837-47; Gupta et al., vide supra, Rybchyn M S et al., J Invest Dermatol, 2018; 138 (5): 1146-1156). Thymine dimers were detected using the anti-thymine dimer antibody (Sigma-Aldrich, Missouri, USA) at 10 μg/mL, and quantified as an index of CPD, as previously described (Douki T and Cadet J, Biochemistry, 2001, 40 (8): 2495-501).
Following irradiation, keratinocytes were treated with either Calcitriol, vehicle control (Veh) or the polypeptide IK34720 (SEQ ID NO: 3; “IK”) IK14800; (RSKAKNPLYRRRRRRRRR), RSKAKNPLY (IK94000) and RRRRRRRRR (IK00900), at concentrations of 5 μM.

[2] = target: T1, polypeptide IK34720 (RSKAKNPLYRRRRRRRRR)
T1 chain: RSKAKNPLYRRRRRRRRR

CCNC(=O)[C@H]1O[C@@H](n2cnc3c(N)nc(NCCc4ccc(CCC(=O)O)cc4)nc32)[C@H](O)[C@@H]1O [CGS-21680, reference compound]
wound closure percentage ([1]; Day 5 to Day 11, vs negative control (PBS)): increase wound healing

C=C1/C(=C\C=C2/CCC[C@]3(C)[C@@H]([C@H](C)CCCC(C)(C)O)CC[C@@H]23)C[C@@H](O)C[C@@H]1O [Calcitriol, 1,25-dihydroxyvitamin D3, reference compound]
cells stained for CPDs (human skin explants): fewer stained cells
cells staining for MMP-1 (MMP1): fewer stained cells
significant difference in TRS (TBA reactive substances) between Sham and UV irradiation (dermal fibroblasts): not seen

RRRRRRRRR [IK00900]
CPD levels compared to vehicle-treated UV-irradiated keratinocytes (primary keratinocytes): decrease CPD levels; also recorded: statistically significant (*p<0.05) reduction in CPD levels
reduction in CPD levels compared to Calcitriol (primary keratinocytes): comparable reduction in CPD levels to keratinocytes treated with Calcitriol

RSKAKNPLY (not fully specified (some residues)) [IK94000]
CPD levels compared to vehicle-treated UV-irradiated keratinocytes (primary keratinocytes): decrease CPD levels; also recorded: statistically significant (*p<0.05) reduction in CPD levels
reduction in CPD levels compared to Calcitriol (primary keratinocytes): comparable reduction in CPD levels to keratinocytes treated with Calcitriol

rrrrrrrrrylpnkaksr ([dR][dR][dR][dR][dR][dR][dR][dR][dR][dY][dL][dP][dN][dK][dA][dK][dS][dR]) [IK236770]
wound healing (wound closure % percentage) ([1]; day 5, vs negative control): statistically significant increase in wound healing

B1: Human rheumatoid synovial fibroblast MMP-1 proenzyme, activated with APMA (protein)
chain: FVLTEGNPRWEQTHLTYRIENYTPDLPRADVDHAIEKAFQLWSNVTPLTFTKVSEGQADIMISFVRGDHRDNSPFDGPGGNLAHAFQPGPGIGGDAHFDEDERWTNNFREYNLHRVAAHELGHSLGLSHSTDIGALMYPSYTFSGDVQLAQDDIDGIQAIYGRSQNPVQPIGPQTPKACDSKLTFDAITTIRGEVMFFKDRFYMRTNPFYPEVELNFISVFWPQLPNGLEAAYEFADRDEVRFFKGNKYWAVQGQNVLHGYPKDIYSSFGFPRTVKHIDAALSEENTGKTYFFVANKYWRYDEYKRSMDPGYPKMIAHDFPGIGHKVDAVFMKDGFFYFFHGTRQYKFDPKTKRILTLQKANSWFNCRKN
MMP-1 enzyme activity in vitro (fluorimetric cleavage of Mca-Pro-Leu-Gly-Leu-Dap-Ala-Arg; peptide at 5, 10, 800 and 1000 uM pre-incubated with 8 nM activated enzyme) [2]: inhibits MMP-1 activation in a dose dependent manner
